# From the supplement of paper PMC12463676, “Small-molecule dissolution of stress granules by redox modulation benefits ALS models” (Nature Chemical Biology, 2025)
# Tests used:
# lipoamide = compound: NC(=O)CCCCC1CCSS1 [lipoamide]; assay: thermal stability z-score vs DMSO; higher = more thermally stabilized by treatment; settings: HeLa, lipoamide concentration 100 µM
# Procedure: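 Cellular thermal proteome profiling in HeLa cells. Cells were treated with 100 µM lipoamide for 1 h, with or without 1 mM arsenate for a further 1 h, then heated to ten temperatures (37-66.3 °C), and soluble protein was quantified by TMT mass spectrometry relative to 0.1% DMSO controls. The thermal stability score (sum of log2 fold changes minus the abundance score) was transformed to a z-score; mean of n = 3 experiments.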
# potassium arsenate = compound: O=[As]([O-])(O)O.[K+] [potassium arsenate]; assay: as above; settings: HeLa; arsenate concentration 1 mM
# Procedure: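 Cellular thermal proteome profiling in HeLa cells treated with 1 mM arsenate for 1 h (DMSO pretreatment), heated to ten temperatures (37-66.3 °C). Soluble protein was quantified by TMT mass spectrometry relative to DMSO controls; the thermal stability score was transformed to a z-score; mean of n = 3 experiments.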
# [1] = arsenate co-treatment: 1 mM arsenate 1 h
# 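Further: each temperature applied for 3 min, abundance score taken as mean log2 fold change at the two lowest temperatures, z-score obtained by mean subtraction and division by SD.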
# Sequence of UniProt Q52LW3 (Q52LW3 whole entry): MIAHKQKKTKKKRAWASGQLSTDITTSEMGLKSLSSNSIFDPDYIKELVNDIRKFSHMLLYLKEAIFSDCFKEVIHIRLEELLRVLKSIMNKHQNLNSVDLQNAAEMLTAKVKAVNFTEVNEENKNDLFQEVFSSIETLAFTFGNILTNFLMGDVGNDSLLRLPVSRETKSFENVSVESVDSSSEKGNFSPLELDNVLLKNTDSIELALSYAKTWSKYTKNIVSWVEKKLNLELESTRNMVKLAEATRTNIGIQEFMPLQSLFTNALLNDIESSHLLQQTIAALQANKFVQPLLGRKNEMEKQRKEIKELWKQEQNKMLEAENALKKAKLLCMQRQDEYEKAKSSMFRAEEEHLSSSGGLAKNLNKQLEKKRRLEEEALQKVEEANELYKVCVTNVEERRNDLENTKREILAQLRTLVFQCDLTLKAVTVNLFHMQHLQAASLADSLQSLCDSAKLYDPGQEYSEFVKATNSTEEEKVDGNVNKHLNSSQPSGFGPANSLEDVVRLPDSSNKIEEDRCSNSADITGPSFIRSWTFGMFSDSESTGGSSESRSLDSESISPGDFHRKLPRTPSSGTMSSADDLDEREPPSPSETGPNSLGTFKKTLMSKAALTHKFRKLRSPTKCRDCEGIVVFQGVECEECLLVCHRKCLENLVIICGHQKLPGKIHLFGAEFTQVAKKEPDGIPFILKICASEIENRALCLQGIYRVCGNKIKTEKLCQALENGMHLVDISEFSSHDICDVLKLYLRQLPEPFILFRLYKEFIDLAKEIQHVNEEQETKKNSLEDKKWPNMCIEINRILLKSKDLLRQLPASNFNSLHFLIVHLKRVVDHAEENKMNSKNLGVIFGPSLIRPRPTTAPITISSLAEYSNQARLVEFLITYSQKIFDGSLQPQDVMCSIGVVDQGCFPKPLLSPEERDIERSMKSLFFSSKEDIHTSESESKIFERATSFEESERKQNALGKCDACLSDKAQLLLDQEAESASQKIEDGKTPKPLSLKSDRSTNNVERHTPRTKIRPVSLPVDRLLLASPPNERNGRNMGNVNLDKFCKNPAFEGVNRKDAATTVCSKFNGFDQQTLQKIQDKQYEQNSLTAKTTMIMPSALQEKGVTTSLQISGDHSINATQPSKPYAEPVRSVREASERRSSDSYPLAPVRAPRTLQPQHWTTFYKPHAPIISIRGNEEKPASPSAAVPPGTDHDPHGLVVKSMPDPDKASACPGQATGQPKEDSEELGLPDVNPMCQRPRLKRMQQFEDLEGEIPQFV
# Sequence of UniProt P36956 (P36956 whole entry): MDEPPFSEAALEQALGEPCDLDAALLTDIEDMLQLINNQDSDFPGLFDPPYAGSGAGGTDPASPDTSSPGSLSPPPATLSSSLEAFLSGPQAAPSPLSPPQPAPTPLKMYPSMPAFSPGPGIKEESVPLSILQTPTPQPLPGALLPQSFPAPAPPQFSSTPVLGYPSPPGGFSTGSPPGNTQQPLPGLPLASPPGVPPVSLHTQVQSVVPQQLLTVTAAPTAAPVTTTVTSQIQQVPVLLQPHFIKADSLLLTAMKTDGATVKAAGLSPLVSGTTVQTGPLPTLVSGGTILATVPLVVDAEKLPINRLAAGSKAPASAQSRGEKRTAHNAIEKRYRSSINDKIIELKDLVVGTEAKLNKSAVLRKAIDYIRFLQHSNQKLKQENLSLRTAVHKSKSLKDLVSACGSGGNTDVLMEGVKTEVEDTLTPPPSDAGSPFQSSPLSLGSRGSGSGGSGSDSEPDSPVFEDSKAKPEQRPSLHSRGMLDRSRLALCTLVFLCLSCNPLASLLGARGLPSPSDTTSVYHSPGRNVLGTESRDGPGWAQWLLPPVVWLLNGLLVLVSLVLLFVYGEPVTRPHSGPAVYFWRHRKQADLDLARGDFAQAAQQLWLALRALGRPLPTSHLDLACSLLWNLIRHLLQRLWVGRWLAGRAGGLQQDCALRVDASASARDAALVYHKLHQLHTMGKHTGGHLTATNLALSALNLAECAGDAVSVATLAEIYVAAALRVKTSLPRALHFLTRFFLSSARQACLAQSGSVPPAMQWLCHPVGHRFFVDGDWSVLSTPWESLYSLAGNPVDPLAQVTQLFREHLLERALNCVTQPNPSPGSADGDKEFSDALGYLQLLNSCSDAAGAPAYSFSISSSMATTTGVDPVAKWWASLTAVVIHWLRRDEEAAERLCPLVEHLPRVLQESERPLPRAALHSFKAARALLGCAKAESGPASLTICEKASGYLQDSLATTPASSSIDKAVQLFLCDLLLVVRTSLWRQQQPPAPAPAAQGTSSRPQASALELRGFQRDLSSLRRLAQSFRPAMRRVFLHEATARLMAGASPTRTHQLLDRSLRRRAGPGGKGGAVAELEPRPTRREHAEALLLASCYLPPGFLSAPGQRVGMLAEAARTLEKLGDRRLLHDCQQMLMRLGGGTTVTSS
# Sequence of UniProt Q08AD1 (Q08AD1 whole entry): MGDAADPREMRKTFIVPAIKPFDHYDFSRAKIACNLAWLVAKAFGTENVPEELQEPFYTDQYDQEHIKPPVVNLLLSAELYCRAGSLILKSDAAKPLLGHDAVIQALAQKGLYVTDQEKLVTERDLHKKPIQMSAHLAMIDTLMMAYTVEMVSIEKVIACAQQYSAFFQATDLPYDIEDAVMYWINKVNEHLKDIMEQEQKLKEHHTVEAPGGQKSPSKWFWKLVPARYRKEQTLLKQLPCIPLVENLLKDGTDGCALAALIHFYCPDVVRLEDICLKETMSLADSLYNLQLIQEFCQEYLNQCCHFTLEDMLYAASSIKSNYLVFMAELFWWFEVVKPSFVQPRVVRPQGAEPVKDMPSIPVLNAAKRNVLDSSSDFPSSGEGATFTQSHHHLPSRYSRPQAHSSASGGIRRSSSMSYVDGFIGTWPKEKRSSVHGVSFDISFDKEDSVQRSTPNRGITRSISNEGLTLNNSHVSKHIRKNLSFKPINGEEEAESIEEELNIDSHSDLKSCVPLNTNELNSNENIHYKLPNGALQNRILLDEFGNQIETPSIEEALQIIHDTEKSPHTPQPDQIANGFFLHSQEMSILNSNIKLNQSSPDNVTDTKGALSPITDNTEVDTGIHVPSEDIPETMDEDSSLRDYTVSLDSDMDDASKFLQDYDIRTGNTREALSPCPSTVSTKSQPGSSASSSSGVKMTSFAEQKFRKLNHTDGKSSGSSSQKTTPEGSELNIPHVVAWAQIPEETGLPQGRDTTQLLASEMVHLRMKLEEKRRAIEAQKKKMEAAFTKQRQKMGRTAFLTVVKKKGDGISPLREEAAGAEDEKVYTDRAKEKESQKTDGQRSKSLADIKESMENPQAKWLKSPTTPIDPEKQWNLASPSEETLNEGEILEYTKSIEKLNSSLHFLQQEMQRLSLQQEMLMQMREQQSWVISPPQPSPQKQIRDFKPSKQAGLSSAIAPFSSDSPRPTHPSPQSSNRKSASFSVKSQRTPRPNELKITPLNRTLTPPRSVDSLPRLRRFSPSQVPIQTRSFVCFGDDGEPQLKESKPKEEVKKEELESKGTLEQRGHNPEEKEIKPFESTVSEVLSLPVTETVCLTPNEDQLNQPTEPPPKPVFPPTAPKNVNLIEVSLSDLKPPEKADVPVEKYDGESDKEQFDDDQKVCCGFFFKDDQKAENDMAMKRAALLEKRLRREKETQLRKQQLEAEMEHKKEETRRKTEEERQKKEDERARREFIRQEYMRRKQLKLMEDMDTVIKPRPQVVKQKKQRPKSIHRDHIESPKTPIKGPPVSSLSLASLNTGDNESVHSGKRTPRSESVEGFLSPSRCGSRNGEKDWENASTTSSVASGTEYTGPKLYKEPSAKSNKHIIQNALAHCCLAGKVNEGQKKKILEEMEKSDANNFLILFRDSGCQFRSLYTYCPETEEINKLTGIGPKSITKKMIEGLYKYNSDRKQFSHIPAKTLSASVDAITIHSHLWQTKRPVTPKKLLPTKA
# Sequence of UniProt P39748 (P39748 whole entry): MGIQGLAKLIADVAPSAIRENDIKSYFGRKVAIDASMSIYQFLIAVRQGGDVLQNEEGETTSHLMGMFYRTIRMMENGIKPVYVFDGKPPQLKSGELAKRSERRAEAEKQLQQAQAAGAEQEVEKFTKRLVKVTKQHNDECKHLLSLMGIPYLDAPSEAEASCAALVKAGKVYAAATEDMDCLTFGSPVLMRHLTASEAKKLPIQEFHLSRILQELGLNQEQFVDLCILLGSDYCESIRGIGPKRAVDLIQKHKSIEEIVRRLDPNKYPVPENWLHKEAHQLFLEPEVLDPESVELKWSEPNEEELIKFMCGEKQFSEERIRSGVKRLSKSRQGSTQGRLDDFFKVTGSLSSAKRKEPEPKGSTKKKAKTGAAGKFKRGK
# Sequence of UniProt Q9BQA1 (Q9BQA1 whole entry): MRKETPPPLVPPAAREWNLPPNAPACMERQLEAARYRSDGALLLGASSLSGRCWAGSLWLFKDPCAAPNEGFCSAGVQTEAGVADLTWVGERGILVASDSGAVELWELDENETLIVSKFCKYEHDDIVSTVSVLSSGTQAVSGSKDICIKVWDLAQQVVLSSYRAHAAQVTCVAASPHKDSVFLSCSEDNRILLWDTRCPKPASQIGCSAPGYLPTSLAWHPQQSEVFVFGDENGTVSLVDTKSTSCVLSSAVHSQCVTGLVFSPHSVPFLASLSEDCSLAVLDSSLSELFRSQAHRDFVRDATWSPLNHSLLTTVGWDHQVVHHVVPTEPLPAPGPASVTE
# Sequence of UniProt P17931 (P17931 whole entry): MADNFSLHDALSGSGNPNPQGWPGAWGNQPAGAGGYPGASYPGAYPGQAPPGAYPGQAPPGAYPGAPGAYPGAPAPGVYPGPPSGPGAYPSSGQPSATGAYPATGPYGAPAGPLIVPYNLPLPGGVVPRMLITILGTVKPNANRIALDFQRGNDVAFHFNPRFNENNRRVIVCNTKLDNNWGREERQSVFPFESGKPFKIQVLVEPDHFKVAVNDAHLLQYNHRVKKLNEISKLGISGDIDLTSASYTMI
# Sequence of UniProt Q9H1K1 (Q9H1K1 whole entry): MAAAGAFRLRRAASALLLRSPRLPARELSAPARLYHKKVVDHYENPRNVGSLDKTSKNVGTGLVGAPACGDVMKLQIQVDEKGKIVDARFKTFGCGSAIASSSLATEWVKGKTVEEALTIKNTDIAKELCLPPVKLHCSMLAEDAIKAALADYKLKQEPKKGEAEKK
Target,thermal stability z-score (lipoamide; [1]),thermal stability z-score (lipoamide; arsenate co-treatment: none),thermal stability z-score (potassium arsenate)
TCEB2 (UniProt Q15370),0.764,0.455,0.154
GPHN (UniProt Q9NQX3),-0.406,-0.149,-0.949
ERCC6L (UniProt Q2NKX8),-0.457,-0.258,0.265
RPS19 (UniProt P39019),0.104,0.15,-1.03
SRPK2 (UniProt P78362),0.467,-0.365,0.168
ISCU (UniProt Q9H1K1),0.628,0.0375,-1.15
PCF11 (UniProt O94913),-0.0765,-0.00889,-0.0822
GRSF1 (UniProt Q12849),-0.892,-0.354,0.26
MBD2 (UniProt Q9UBB5),0.0418,0.0688,-0.294
CAMSAP2 (UniProt Q08AD1),-0.52,-0.353,-1.05
RRP12 (UniProt Q5JTH9),0.612,0.819,0.0662
TAP2 (UniProt Q03519),-0.828,-0.526,0.366
WDR77 (UniProt Q9BQA1),-0.484,0.78,-0.717
UBR4 (UniProt Q5T4S7),-0.162,-0.16,0.242
NCAPH2 (UniProt Q6IBW4),-0.0183,0.00929,-0.299
ZZEF1 (UniProt O43149),0.044,0.201,0.0396
RBM33 (UniProt Q96EV2),0.0301,-0.534,-0.175
SREBF1 (UniProt P36956),-0.33,0.0707,0.119
HINT1 (UniProt P49773),1.13,0.532,-0.189
EGFL7 (UniProt Q9UHF1),0.126,0.102,-0.108
EIF3H (UniProt O15372),-0.579,-0.608,0.162
RPSA (UniProt P08865),0.555,0.847,-1.42
MAP2K6 (UniProt P52564),-0.0718,0.061,-0.021
EIF2AK1 (UniProt Q9BQI3),-0.867,0.23,0.583

Target,thermal stability z-score (lipoamide; [1]),thermal stability z-score (lipoamide; arsenate co-treatment: none),thermal stability z-score (potassium arsenate)
MPZL2 (UniProt O60487),0.503,-0.0637,-0.0559
POR (UniProt P16435),-0.215,-0.028,1.03
CHPF (UniProt Q8IZ52),-1.5,-0.387,-0.257
CTTNBP2NL (UniProt Q9P2B4),1.4,1.54,1.26
GTF3C2 (UniProt Q8WUA4),0.112,0.0176,-0.411
CDK9 (UniProt P50750),-0.226,-0.263,0.544
THOC2 (UniProt Q8NI27),-0.212,-0.102,0.273
RPL35A (UniProt P18077),0.893,0.484,-0.477
DDX39B (UniProt Q13838),0.451,0.103,0.941
YWHAB (UniProt P31946),0.364,0.584,0.281
SMG5 (UniProt Q9UPR3),-0.0554,0.0814,-0.104
DCPS (UniProt Q96C86),-0.92,-0.621,-0.92
GRAMD1B (UniProt Q3KR37),-0.102,0.0763,-0.00294
PDCD2 (UniProt Q16342),-0.0711,-0.181,-0.371
HK1 (UniProt P19367),0.339,0.466,0.159
WDFY1 (UniProt Q8IWB7),-0.112,-0.423,-1.85
CISD1 (UniProt Q9NZ45),0.257,0.707,-0.578
ARPC1A (UniProt Q92747),-0.106,0.0846,-0.466
PFDN6 (UniProt O15212),1.95,2.18,1.42
PDLIM1 (UniProt O00151),0.156,0.134,-0.239
SBF1 (UniProt O95248),-0.316,0.227,-0.338
PYCR1 (UniProt P32322),-0.0172,-0.299,-0.368
R3HDM1 (UniProt Q15032),0.0761,0.111,0.0316
LGALS3 (UniProt P17931),0.762,0.918,-0.377

Target,thermal stability z-score (lipoamide; [1]),thermal stability z-score (lipoamide; arsenate co-treatment: none),thermal stability z-score (potassium arsenate)
NSMCE3 (UniProt Q96MG7),-0.0975,-0.0424,0.119
LOXL2 (UniProt Q9Y4K0),-1.8,-1.35,-0.197
DTWD2 (UniProt Q8NBA8),-0.283,0.0338,0.0974
SLC25A6 (UniProt P12236),0.809,0.762,0.433
SLIRP (UniProt Q9GZT3),-0.917,-0.197,0.123
SCRIB,-0.00971,-0.22,0.128
APIP (UniProt Q96GX9),0.597,0.408,-0.0221
OTUD6B (UniProt Q8N6M0),0.504,-0.85,0.0655
ATP1A1 (UniProt P05023),0.0243,0.186,-0.742
NARS2 (UniProt Q96I59),-0.454,0.256,-0.19
QRSL1 (UniProt Q9H0R6),-0.401,-2.57,0.708
S100A6 (UniProt P06703),1.78,0.967,1.15
HERC5 (UniProt Q9UII4),0.139,0.601,0.512
BPHL (UniProt Q86WA6),-0.428,-0.368,-1.21
STAT5B (UniProt P51692),-0.378,-0.11,0.0458
CEP44 (UniProt Q9C0F1),0.18,0.0577,0.0867
ARPP19 (UniProt P56211),0.84,0.316,-0.359
ARHGAP29 (UniProt Q52LW3),-0.215,-0.998,-1.28
HOOK2 (UniProt Q96ED9),0.0635,-0.0859,-0.0139
PAPOLG (UniProt Q9BWT3),-0.086,0.083,0.167
FEN1 (UniProt P39748),-0.489,0.469,0.572
GALNT7 (UniProt Q86SF2),0.205,-0.0334,0.187
TRMT61A (UniProt Q96FX7),1.14,-1.08,-0.0703
